In patent US20120232127A1, “REGULATION OF NEUROTRANSMITTER RELEASE THROUGH ANION CHANNELS” (KOREA INSTITUTE OF SCIENCE AND TECHNOLOGY, priority 2008, published 2012):
Entries after “also recorded” stand apart in the source; their conditions may differ.

What was measured:
[1] = biological target: T1, Ca2+-activated anion channels (CAACs) (Mus musculus, UniProt O88870, R255K); test: Gramicidin-D perforated patch clamp of TFLLR-induced inward current in cultured astrocytes; format: cell-based; conditions: for block of TFLLR-induced current: 100 μM blocker, cultured astrocytes; for block of the current by CAACs: astrocytes
T1 construct: endogenous in cells; host or cells: cultured mouse cortical astrocytes
T1 sequence (O88870 1-551 R255K): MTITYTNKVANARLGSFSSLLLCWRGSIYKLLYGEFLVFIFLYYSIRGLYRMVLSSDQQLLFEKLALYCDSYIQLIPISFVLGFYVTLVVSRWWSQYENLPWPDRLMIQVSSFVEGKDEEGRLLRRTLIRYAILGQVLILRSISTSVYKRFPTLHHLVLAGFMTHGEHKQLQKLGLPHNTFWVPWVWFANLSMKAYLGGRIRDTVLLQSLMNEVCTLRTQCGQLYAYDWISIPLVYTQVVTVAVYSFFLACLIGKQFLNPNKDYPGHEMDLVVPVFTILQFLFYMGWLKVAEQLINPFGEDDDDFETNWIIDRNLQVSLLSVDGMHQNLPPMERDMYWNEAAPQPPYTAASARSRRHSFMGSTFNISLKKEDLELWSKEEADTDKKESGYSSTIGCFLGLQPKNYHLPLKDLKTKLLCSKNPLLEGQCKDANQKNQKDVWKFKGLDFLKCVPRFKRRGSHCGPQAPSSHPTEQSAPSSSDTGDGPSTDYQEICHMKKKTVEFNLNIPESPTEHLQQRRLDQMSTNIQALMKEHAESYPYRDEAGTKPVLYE
Description: (§1) The External solution was comprised of (in mM) 150 NaCl, 10 HEPES, 3 KCl, 2 CaCl2, 2 MgCl2, 5.5 glucose, at pH 7.3 (˜320 mOsm). For voltage clamp recordings, the internal solution contained 25 μg/ml gramicidin D and (in mM) 75 Cs2SO4, 10 NaCl, 0.1 CaCl2, and 10 HEPES, at pH 7.1 (˜310 mOsm). For current clamp recordings, the internal solution contained 25 μg/ml gramicidin D and (in mM) 75 K2SO4, 10 KCl, 0.1 CaCl2, and 10 HEPES, at pH 7.1 (˜310 mOsm). Pipette resistances ranged from 5 to 8 MΩ. For perforated patch clamp, it took 20 to 30 min to achieve acceptable perforation, with final series resistances ranging from 15 to 40 MΩ.
(§2) To test if activation of PAR1 by its specific agonist (e.g., TFLLR) causes any change in membrane conductance that might contribute to glutamate release from astrocytes, the whole cell currents and intracellular Ca^2+ responses in cultured astrocytes under gramicidin-D perforated patch configuration were simultaneously recorded (FIG. 1a). This technique minimized dialysis of intracellular ions.

[2] = tested on: Ca2+-activated anion channels (CAACs); test: as above; format: cell-based, mouse
Description: as §1, §2

[3] = tested on: intracellular Ca2+ in cultured astrocytes; test: Ca2+ imaging of TFLLR-induced [Ca2+]i transient in cultured astrocytes; format: cell-based, mouse
Description: as §1, §2

[4] = biological target: T2, Ca2+-activated anion channels (CAACs) (Mus musculus, UniProt O88870); test: Gramicidin-D perforated patch clamp of TFLLR-induced inward current in cultured astrocytes; format: cell-based; conditions: cultured astrocytes, voltage-independent block
T2 construct: endogenous in cells; host or cells: cultured mouse cortical astrocytes
T2 sequence (O88870 1-551 R255K): T1 sequence (O88870 1-551 R255K)
Description: as §1, §2

[5] = biological target: T3, astrocytic CAAC / mBest1 channel (glutamate release) (Mus musculus, UniProt O88870, R255K); test: Sniffer patch: astrocyte to GluR1 (L497Y)-expressing HEK293T cell pairs, TFLLR-induced glutamate release; format: cell-based; conditions: sniffer patch, cultured astrocytes as glutamate source
T3 construct: endogenous in cells; host or cells: cultured mouse cortical astrocytes
T3 sequence (O88870 1-551 R255K): T1 sequence (O88870 1-551 R255K)
Description: The sniffer patch technique, which is used for determining whether or not one is permeable to glutamate, was performed as described in Lee, C. J. et al. Astrocytic control of synaptic NMDA receptors. J Physiol 581, 1057-81 (2007), which is hereby incorporated by reference for all purposes as if fully set forth herein.
2. In experiments using astrocyte-HEK293T cell pairs, the sniffer patch techniques used naïve, scrambled- or mBest1-specific shRNA expressing (with GFP) astrocytes as a glutamate source; and GluR1 (L497Y) expressing HEK293T cells (with DsRED) as a detector. After obtaining gigaohm sealing, GluR1 (L497Y)-expressing cell was firstly ruptured, and then counterpart astrocytes were pressure-applied with 500 uM of TFLLR to evoke an increase in astrocytic intracellular Ca^2+ and resulting glutamate release onto the adjacent HEK293T cells.
GluR1LY-expressing detector cells were patched with the pipette solution pH 7.3 containing 110 mM CsGluconate, 30 mM CsCl, 5 mM HEPES, 4 mM NaCl, 2 mM MgCl2, 5 mM EGTA, and 1 mM CaCl2. The percentage of GluR1 (L497Y)-mediated current to the full activation level was analyzed by dividing the current amplitude of GluR1 (L497Y) current obtained through sniffer patch measurement by that of fully activated GluR1 (L497Y) current in the same cells.
The glutamate release through astrocytic CAACs was examined by using “sniffer-patch” technique and recording real-time glutamate release from cultured astrocytes (FIG. 10a). Using this technique, the present inventors observed that TFLLR-induced astrocytic glutamate release into an adjacent HEK293T cells expressing the non-desensitizing AMPA receptor subunit GluR1 (L497Y) mutant evoked an inward current sensitive to AMPA receptor antagonists, which is interpreted to reflect release of glutamate. The effects of TFLLR on current responses in transfected HEK293T cells was blocked by the treatment of niflumic acid (% block by niflumic acid=66.6±5.7%, FIGS. 10d to 10f), which is consistent with the idea that astrocytic CAAC is permeable to glutamate.

[6] = tested on: evoked EPSPs in hippocampal slices; test: Current clamp of evoked EPSPs, Schaffer collateral to CA1 pyramidal neuron synapse in hippocampal slices; conditions: 30 μM niflumic acid
Description: To assess whether CAAC-dependent glutamate release in astrocytes occurs and enhances synaptic potentials in vivo, a series of current clamp experiments were carried out to directly measure the effects of CAAC-dependent glutamate release on the evoked EPSPs (eEPSPs) of the Schaffer collateral to CA1 pyramidal neuron synapse in hippocampal slices. Under the similar recording conditions as previously described in ‘Lee, C. J. et al. Astrocytic control of synaptic NMDA receptors.

[7] = tested on: glutamate release from cultured astrocytes; test: TFLLR-evoked efflux of radiotracer from [3H]-glutamate-loaded cultures; format: cell-based
[8] = tested on: NMDA receptor (NMDAR); test: Voltage clamp of NMDAR-mediated mEPSC decay and NMDAR-mediated current
[9] = biological target: T4, astrocytic CAACs (Mus musculus, UniProt O88870, R255K); test: Whole-cell patch clamp, astrocytic CAAC current directly activated by 4.5 μM internal Ca2+; format: cell-based; conditions: internal solution with 4.5 μM Ca2+
T4 construct: endogenous in cells; host or cells: cultured mouse cortical astrocytes
T4 sequence (O88870 1-551 R255K): T1 sequence (O88870 1-551 R255K)
Description: Patch pipettes which have 3-6MΩ of resistance are filled with the standard intracellular solution. Current voltage curves were established by applying 100- or 200-ms-duration voltage ramps from −100 to +100 mV. […]. Data were acquired by an Axopatch 200A amplifier controlled by Clampex 9.0 via a Digidata 1322A data acquisition system (Molecular Devices). Experiments were conducted at room temperature (20˜24° C.). The standard pipette solution was comprised of (in mM) 146 CsCl, 2 MgCl2, 5 (Ca^2+)-EGTA, 8 HEPES, and 10 sucrose, at pH 7.3, adjusted with CsOH. The concentration of free [Ca^2+]i in the solution was determined (Kuruma, A. & Hartzell, H. C. Bimodal control of a Ca(^2+)-activated Cl(−) channel by difference Ca(^2+) signals. J Gen Physiol 115, 59-80 (2000), which is hereby incorporated by reference for all purposes as if fully set forth herein). The standard extracellular solution was comprised of (in mM) 140 NaCl, 5 KCl, 2 CaCl2, 1 MgCl2, 15 glucose, and 10 HEPES, with pH 7.3 as adjusted using NaOH.
Because CAACs can permeate large anions and could be directly activated by applying internal solutions with known Ca^2+ concentrations, it was tested whether astrocytic CAACs can permeate glutamate by directly applying internal solutions containing 4.5 μM of Ca^2+ at which level CAACs are maximally activated (FIG. 10).

[10] = tested on: CAACs expressed in Xenopus laevis oocytes; conditions: read-out: reported IC50 value for CAACs expressed in Xenopus laevis oocytes; cited from earlier work
[11] = BAPTA-AM, 50 μM preincubation for 30 min
[12] = thapsigargin 100 nM, preincubation 5 min
[13] = thapsigargin 100 nM, preincubation 5 min, listed as Thapsigargin
[14] = U73122 2 μM, preincubation 10 min

Molecule: O=C(O)c1cc([N+](=O)[O-])ccc1NCCCc1ccccc1 [NPPB, 5-nitro-2(3-phenylpropylamino)-benzoic acid]
- block of TFLLR-induced current [1]: blocked

Molecule: CC(=O)OCOC(=O)CN(CC(=O)OCOC(C)=O)c1ccccc1OCCOc1ccccc1N(CC(=O)OCOC(C)=O)CC(=O)OCOC(C)=O [BAPTA-AM]
- effect on TFLLR-induced current [2, 11]: eliminated; also recorded: inhibition
- effect on TFLLR-induced [Ca2+]i transient [3, 11]: eliminated; also recorded: inhibition

Molecule: O=C(O)c1cccnc1Nc1cccc(C(F)(F)F)c1 [niflumic acid]
- IC50 [4]: 9.8 µM
- block of TFLLR-induced current [1]: blocked; also recorded: inhibited
- block of TFLLR-induced current ([1]; listed as Niflumic acid): blocked
- % block of TFLLR effect on current responses in GluR1 (L497Y)-transfected HEK293T cells [5]: 66.6±5.7%
- effect on TFLLR enhancement of eEPSP [6]: blocked; also recorded: not statistically significant
- inhibition of TFLLR-evoked efflux of radiotracer from [3H]-glutamate-loaded cultures [7]: 69%
- effect on NMDAR-mediated current amplitude [8]: minimally affected
- TFLLR-induced prolongation of slow NMDAR-mediated component of mEPSC decay ([8]; voltage clamp): sensitive
- block of directly activated non-desensitizing CAAC current [9]: readily blocked
- IC50 [10]: 10.1 µM
- effect on TFLLR-induced increases in intracellular Ca2+ ([3]; 100 μM niflumic acid, n=5): attenuated but did not completely block

Molecule: O=C(O)c1ccccc1Nc1cccc(C(F)(F)F)c1 [flufenamic acid]
- block of TFLLR-induced current [1]: blocked
- inhibition of TFLLR-evoked efflux of radiotracer from [3H]-glutamate-loaded cultures [7]: 57%

Molecule: chlorotoxin
- block of the current by CAACs ([1]; 1 μM): did not block

Molecule: C/C=C(/C)C(=O)O[C@H]1C(C)=C2[C@H]([C@@H]1OC(=O)CCCCCCC)[C@@](C)(OC(C)=O)C[C@H](OC(=O)CCC)[C@@]1(O)[C@H]2OC(=O)[C@@]1(C)O [thapsigargin]
- effect on TFLLR-induced inward current [2, 12]: reduced
- effect on TFLLR-induced inward current [2, 13]: inhibition
- effect on TFLLR-induced [Ca2+]i increase [3, 12]: reduced
- effect on TFLLR-induced [Ca2+]i increase [3, 13]: inhibition

Molecule: COc1ccc2c(c1)CC[C@@H]1[C@@H]2CC[C@]2(C)[C@@H](NCCCCCCN3C(=O)C=CC3=O)CC[C@@H]12 [U73122]
- effect on TFLLR-induced inward current [2, 14]: reduced; also recorded: inhibition
- effect on TFLLR-induced [Ca2+]i increase [3, 14]: reduced; also recorded: inhibition

Molecule: CC1(C)[C@@H](OC(=O)CCC(=O)O)CC[C@]2(C)[C@H]3C(=O)C=C4[C@@H]5C[C@@](C)(C(=O)O)CC[C@]5(C)CC[C@@]4(C)[C@]3(C)CC[C@@H]12 [carbenoxolone]
- block of the current by CAACs ([1]; 100 μM): did not block
